What all share (type): biochemical
One test relates to Trypsin. The experiment in a line: Inhibition of trypsin, solid phase tubulin immunoassay (YL 1/2 antibody), Table I. To be noted: trypsin 0.25 μg/ml, 20 mM TRIS pH 7.4, 2 hours at 37° C.; inhibitor 0.01 to 10 μg/ml. As to the method:
(§1) Covalent linkage of tubulin to the support
(§2) 0.150 ml of a freshly made phosfate buffered saline (PBS) solution (pH=7.3) containing 0.03 mg of bis(sulfo-succinidimyl)suberate (BS3, Pierce, Rockford, Ill.) are dispensed into each well of a cova-link 96 wells plate (Nunc). The solution is left in the wells at room temperature for 90 minutes, afterwards the wells are washed three times with PBS solution.
(§3) Afterwards, 0,150 ml of a PBS solution containing 5% glycine (v/v) and 0.75 μg of tubulin obtained according to Example 1 is added to each well. After 90 minutes at room temperature, the solution is removed and 0.3 ml of a 5% glycine PBS solution are added. After about 2 hours, the wells are washed with fresh PBS solution.
(§4) Determination of the anti-proteolytic activity
(§5) 0.15 ml of a solution containing a proteolytic activity and a known inhibitor (concentration from 0.01 to 10 μg/ml) are added to the wells treated according to Example 2 or Example 2a and incubated for 2 hours at 37° C.
(§6) The employed proteolytic enzymes are:
(§7) Serine class: trypsin (0.25 μg/ml), subtilisin (0.25 μg/ml), elastase (0.5 μg/ml) and cathepsin G (5 μg/ml), in a 20 mM solution of Tris-hydroxymethyl-aminomethanchloride (TRIS) (pH=7.4);
(§8) Table I reports the concentration of these inhibitors which determines a 50% inhibition of the above proteases.
(§9) After three rapid washing with PBS solution (pH=7.3), the inhibitory activity is determined as follows:
(§10) A YL 1/2 antibody solution (Amersham) diluted 1:1000 in PBS buffer is added to each well and incubated for 1 hour at room temperature. After three rapid washing with PBS solution, an anti-rat peroxydated antibody solution (Amersham) diluted 1:1000 in PBS buffer is added to each well and incubated for 1 hour at room temperature. After 10-15 minutes, the colour is developed with a 0.5 M citric acid solution (pH=5.5) containing 1 mg/ml of o-phenylendiamine. After 5-10 minutes, the reaction is stopped with H2 SO4 4 M. The colour is detected on a Titertek Multiscan MCC340-HK spectrophotometer reading the absorbance at 492 nm.

A further test concerns Subtilisin. Briefly: Inhibition of subtilisin, solid phase tubulin immunoassay, Table I. To be noted: subtilisin 0.25 μg/ml, 20 mM TRIS pH 7.4, 2 hours at 37° C.; inhibitor 0.01 to 10 μg/ml. The procedure:
as §1, §2, §3, §4, §5, §6, §7, §8, §9, §10

The target in a further test is Elastase. The experiment in a line: Inhibition of elastase, solid phase tubulin immunoassay, Table I. Particulars: elastase 0.5 μg/ml, 20 mM TRIS pH 7.4, 2 hours at 37° C.; inhibitor 0.01 to 10 μg/ml. The procedure: as §1, §2, §3, §4, §5, §6, §7, §8, §9, §10
The target in a further test is T1, Cathepsin G (Homo sapiens, UniProt P08311).
T1 sequence (P08311 21-255): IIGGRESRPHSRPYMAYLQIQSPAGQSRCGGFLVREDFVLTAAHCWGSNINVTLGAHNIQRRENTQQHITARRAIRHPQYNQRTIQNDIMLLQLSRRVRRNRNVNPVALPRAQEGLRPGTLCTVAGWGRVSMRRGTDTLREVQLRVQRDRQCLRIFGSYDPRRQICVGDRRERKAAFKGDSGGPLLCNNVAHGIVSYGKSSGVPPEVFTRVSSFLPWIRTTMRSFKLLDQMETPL
The experiment in a line: Inhibition of cathepsin G, solid phase tubulin immunoassay, Table I. The procedure: as §1, §2, §3, §4, §5, §6, §7, §8, §9, §10

The next test has as its target Pepsin (Sus scrofa, UniProt P00791). Briefly: Inhibition of pepsin, solid phase tubulin immunoassay, Table I. As to the method:
as §1, §2, §3, §4, §5, §6
Aspartic class: pepsin (5 μg/ml), cathepsin D (5 μg/ml), renin (5 μg/ml) and Hiv-1 protease (5 μg/ml), in a 50 mM acetate buffer solution (pH=5.5) containing 0.01% Tween 20 (Pierce);
as §9, §10

In a further test the target is Cathepsin D (Homo sapiens, UniProt P07339). Briefly: Inhibition of cathepsin D, solid phase tubulin immunoassay, Table I. As to the method: as §1, §2, §3, §4
Sequence of Cathepsin D (P07339 65-412, species assumed): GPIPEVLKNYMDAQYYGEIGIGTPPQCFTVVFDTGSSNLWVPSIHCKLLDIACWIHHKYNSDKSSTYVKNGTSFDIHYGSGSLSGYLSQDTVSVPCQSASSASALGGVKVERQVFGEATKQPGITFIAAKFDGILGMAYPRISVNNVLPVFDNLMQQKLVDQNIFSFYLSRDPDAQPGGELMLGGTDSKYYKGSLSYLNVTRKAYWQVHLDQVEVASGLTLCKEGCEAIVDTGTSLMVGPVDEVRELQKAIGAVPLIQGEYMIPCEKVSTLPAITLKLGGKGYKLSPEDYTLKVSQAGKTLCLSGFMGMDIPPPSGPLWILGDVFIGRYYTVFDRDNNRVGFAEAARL
(§11) 0.15 ml of a solution containing a proteolytic activity and a known inhibitor (concentration from 0.01 to 10 μg/ml) are added to the wells treated according to Example 2 or Example 2a and incubated for 2 hours at 37° C. […]
as §9
(§12) A YL 1/2 antibody solution (Amersham) diluted 1:1000 in PBS buffer is added to each well and incubated for 1 hour at room temperature. […] After 5-10 minutes, the reaction is stopped with H2 SO4 4 M. The colour is detected on a Titertek Multiscan MCC340-HK spectrophotometer reading the absorbance at 492 nm.

Another test has as its target T2, Renin (Homo sapiens, UniProt P00797).
T2 sequence (P00797 67-406): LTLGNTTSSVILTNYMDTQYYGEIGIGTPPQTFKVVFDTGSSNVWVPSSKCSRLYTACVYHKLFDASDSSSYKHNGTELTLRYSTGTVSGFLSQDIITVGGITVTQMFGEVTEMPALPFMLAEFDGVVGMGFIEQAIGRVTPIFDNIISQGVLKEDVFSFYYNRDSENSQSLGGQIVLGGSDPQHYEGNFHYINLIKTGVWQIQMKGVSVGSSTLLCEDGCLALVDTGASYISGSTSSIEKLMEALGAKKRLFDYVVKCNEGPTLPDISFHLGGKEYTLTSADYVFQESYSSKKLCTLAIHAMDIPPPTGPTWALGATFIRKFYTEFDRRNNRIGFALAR
Briefly: Inhibition of renin, solid phase tubulin immunoassay, Table I. As to the method: as §1, §2, §3, §4, §11, §9, §12

The target of a further test is T3, Hiv-1 protease (Human immunodeficiency virus type 1 group M subtype B, UniProt P04585).
T3 construct: Hiv-1 protease
The experiment in a line: Inhibition of Hiv-1 protease, solid phase tubulin immunoassay, Table I. As to the method: as §1, §2, §3, §4, §11, §9, §12

For test [1], the target named is Papain (Carica papaya, UniProt P00784). Briefly: Inhibition of papain, solid phase tubulin immunoassay, Table I. To be noted: papain 0.25 μg/ml, 50 mM acetate pH 5.5, 5 mM cysteine, 2 hours at 37° C.; inhibitor 0.01 to 10 μg/ml; read-out: Concentration of inhibitor in the proteolytic solution which determines the 50% inhibition of the protease (converted). As to the method: as §1, §2, §3, §4, §5, §6
(§13) Cysteine class: papain (0.25 μg/ml) and cathepsin B (10 μg/ml) in a 50 mM acetate buffer solution (pH=5.5) containing 5 mM cysteine.
as §8, §9, §10

Another test concerns the target Cathepsin B (Homo sapiens, UniProt P07858). The experiment in a line: Inhibition of cathepsin B, solid phase tubulin immunoassay, Table I. As to the method:
as §1, §2, §3, §4, §11, §9, §12

Test [2] deals with proteases of the cysteine class. Briefly: Specificity for protease classes, solid phase tubulin immunoassay. To be noted: in words. The procedure: (§14) As mentioned above, the first step of the present assay is the contact of the supported tubulin or tubulin-like peptide with a solution containing a proteolytic activity as above described. By contacting solutions containing different proteolytic activities and a same inhibitor substance, it is possible to determine both the specificity of said inhibitor against the selected protease and the percentage of inhibition.
as §4, §5, §6, §13, §8, §9, §12

The test system of test [3] is proteases of the aspartic class. The description is as above. To be noted: in words. As to the method:
as §14, §4, §5, §6
Aspartic class: pepsin (5 μg/ml), cathepsin D (5 μg/ml), renin (5 μg/ml) and Hiv-1 protease (5 μg/ml), in a 50 mM acetate buffer solution (pH=5.5) containing 0.01% Tween 20 (Pierce); […]
as §9, §12

The target in test [4] is T4, Papain (Carica papaya, UniProt P00784).
T4 sequence (P00784 whole entry, looked up): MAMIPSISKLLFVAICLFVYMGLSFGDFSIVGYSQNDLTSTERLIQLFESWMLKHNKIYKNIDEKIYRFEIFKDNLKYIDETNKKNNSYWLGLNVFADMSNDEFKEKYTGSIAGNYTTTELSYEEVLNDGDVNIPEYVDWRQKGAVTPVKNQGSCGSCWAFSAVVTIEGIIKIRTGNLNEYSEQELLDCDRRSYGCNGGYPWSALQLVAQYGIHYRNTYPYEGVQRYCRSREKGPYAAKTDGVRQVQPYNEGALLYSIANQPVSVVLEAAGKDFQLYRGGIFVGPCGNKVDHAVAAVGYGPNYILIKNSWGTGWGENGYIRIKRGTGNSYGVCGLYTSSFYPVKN
Briefly: Inhibition of papain, solid phase tubulin immunoassay, Table I. Particulars: papain 0.25 μg/ml, 50 mM acetate pH 5.5, 5 mM cysteine, 2 hours at 37° C.; inhibitor 0.01 to 10 μg/ml. The procedure:
as §1, §2, §3, §4, §5, §6, §13, §8, §9, §10

The test system of test [5] is proteases of the serine class. The experiment in a line: Specificity for protease classes, solid phase tubulin immunoassay. To be noted: in words. As to the method:
as §14, §4, §5, §6
Serine class: trypsin (0.25 μg/ml), subtilisin (0.25 μg/ml), elastase (0.5 μg/ml) and cathepsin G (5 μg/ml), in a 20 mM solution of Tris-hydroxymethyl-aminomethanchloride (TRIS) (pH=7.4); […]
as §9, §12

pIC50: −log10 of the molar value. Where two headings read alike, the source gives them in different places. Square brackets hold non-standard residues; d marks the D form. Peptide text beside a SMILES is read from it. * marks the point of attachment. Sta = CC(C)C[C@H](N)[C@@H](O)CC(=O)O; Isovaleryl = CC(C)CC(=O)* Some results are limits rather than exact numbers.

Sequence of Pepsin (P00791 60-385): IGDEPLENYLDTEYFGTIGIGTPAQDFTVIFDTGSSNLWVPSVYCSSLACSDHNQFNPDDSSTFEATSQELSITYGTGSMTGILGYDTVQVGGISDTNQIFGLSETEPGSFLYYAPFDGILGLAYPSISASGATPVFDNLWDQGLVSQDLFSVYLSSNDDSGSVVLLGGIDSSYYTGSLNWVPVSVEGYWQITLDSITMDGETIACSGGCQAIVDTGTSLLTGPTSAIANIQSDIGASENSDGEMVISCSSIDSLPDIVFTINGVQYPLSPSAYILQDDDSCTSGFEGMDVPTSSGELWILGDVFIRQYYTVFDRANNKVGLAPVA

Usually pIC50 stands for −log10 of the IC50, conventionally taken in molar units. As for `CC(=O)N[C@@H](CC(C)C)C(=O)N[C@@H](CC(C)C)C(=O)N[C@H](C=O)CCCNC(=N)N` [Leupeptin], the “Concentration of inhibitor in the proteolytic solution which determines the 50% inhibition of the protease” value in the test with Trypsin, with Subtilisin and on Elastase was “n.i. (no inhibition)” each time. Further, the pIC50 against Cathepsin G is less than 4.63; at Pepsin, less than 4.63; on Cathepsin D, less than 4.63; on Renin it was less than 4.63; on Hiv-1 protease, less than 4.63; against Cathepsin B it was 5.23. Further, the IC50 at Papain [1] was 0.117 µM. Further, the “specific inhibition of proteases of the cysteine class” value in test [2] is listed as “specific inhibition”.

Regarding `CC(C)CC(=O)N[C@H](C(=O)N[C@H](C(=O)N[C@@H](CC(C)C)[C@@H](O)CC(=O)N[C@@H](C)C(=O)N[C@@H](CC(C)C)[C@@H](O)CC(=O)O)C(C)C)C(C)C` [Pepstatin] (Isovaleryl-VV[Sta]A[Sta]-OH), the “Concentration of inhibitor in the proteolytic solution which determines the 50% inhibition of the protease” value with Trypsin, in the test with Subtilisin and at Elastase was “n.i. (no inhibition)” throughout. In addition, the pIC50 against Cathepsin G was less than 4.84; at Pepsin (50% inhibition of pepsin, under the test conditions) it was approximately 7.70. Also, the IC50 on Papain [1] is more than 14.6 µM. In addition, the “specific inhibition of proteases of the aspartic class” value in test [3] is on record as “specific inhibitor for the proteases of the aspartic class”.

For the compound “α-anti trypsin: inhibitor of the serine class”, the “Concentration of inhibitor in the proteolytic solution which determines the 50% inhibition of the protease” value is 1.0 µg/mL with Trypsin; 7.5 µg/mL in the test on Subtilisin; 1.0 µg/mL at Elastase; “n.i. (no inhibition)” with Cathepsin G (cathepsin G 5 μg/ml, 20 mM TRIS pH 7.4, 2 hours at 37° C., inhibitor 0.01 to 10 μg/ml); “n.i. (no inhibition)” in the test with Pepsin (pepsin 5 μg/ml, 50 mM acetate pH 5.5, 0.01% Tween 20, 2 hours at 37° C., inhibitor 0.01 to 10 μg/ml); “n.i. (no inhibition)” with Cathepsin D (cathepsin D 5 μg/ml, 50 mM acetate pH 5.5, 0.01% Tween 20, 2 hours at 37° C., inhibitor 0.01 to 10 μg/ml). Also, the “Concentration of inhibitor in the proteolytic solution which determines the 50% inhibition of the protease” value is listed as “n.i. (no inhibition)” with Renin (renin 5 μg/ml, 50 mM acetate pH 5.5, 0.01% Tween 20, 2 hours at 37° C., inhibitor 0.01 to 10 μg/ml); “n.i. (no inhibition)” in the test with Hiv-1 protease (Hiv-1 protease 5 μg/ml, 50 mM acetate pH 5.5, 0.01% Tween 20, 2 hours at 37° C., inhibitor 0.01 to 10 μg/ml); “n.i. (no inhibition)” with Papain [4]; “n.i. (no inhibition)” with Cathepsin B (cathepsin B 10 μg/ml, 50 mM acetate pH 5.5, 5 mM cysteine, 2 hours at 37° C., inhibitor 0.01 to 10 μg/ml). The “specific inhibition of proteases of the serine class” value in test [5] was “specific inhibition”.

The record behind these values is patent publication US6159746A, “Solid phase immunoassay to detect inhibitors of proteolytic enzymes” (Gruppo Lepetit S.p.A., priority 1994, dated 2000).
